# Columns and labels:
# Format in all cases: cell-based
# [1] = test system: E. grandis clone 6084 explants; assay: Adventitious shoot regeneration from explants on regeneration medium, clone 6084
# Experimental: (§1) Plant Materials and culture conditions. All elite clones were maintained as shoot clumps in Eucalyptus maintenance (EM) medium (Table 1) in magenta boxes or large disposable vessels and subcultured every 4-6 weeks. Shoot clumps were divided as needed and maintained as stock culture. Unless noted otherwise, all cultures were grown under shaded, cool fluorescent light with a light intensity of 30-40 gE/m^2/s with a photoperiod of 16 hours, and a temperature of 21° C.
# (§2) Although leaves, petioles, internodes, floral tissues, and embryogenic tissues can be used for transformation and subsequent regeneration, leaf explants were selected because leaves are abundant. For transformation, explants of E. grandis clones 6075 and 6084 were incubated with Agrobacterium and were placed on co-culture medium, which was the same as the regeneration medium (Table 2) except with the following modifications: the addition of Agrobacterium inducer acetosyringone and the addition of plant growth regulators that are enriched in auxin. MS medium (Murashige and Skoog 1962) was used in the present co-culture medium; however, other salt media, such as Woody Plant Medium (WPM) salts (Loyd and McCown, 1980) or Lepoivre medium, may be used. Also, other Agrobacterium inducers may be used. Plant explants were co-cultured for four days under low light conditions or in the dark on the co-culture medium.
# (§3) To test the ability of various cytokinins to stimulate adventitious regeneration, the effects of 4-CPPU, Zeatin, TDZ, meta-topolin, and adenine sulfate were compared. The levels of cytokinins varied from 0.025 to 10 μM. The base medium for this matrix is named H2—2.0 (or H2—2 for short), which is the primary MS-based regeneration medium (Table 2). The medium has been effective to induce shoot regeneration from many Eucalyptus species including E. grandis, E. dunnii, E. camaldulensis, E. urophylla, E. occidentalis, and E. saligna. The antibiotic timentin was added at 250 mg/L final concentration. Shoot regeneration was measured as the frequency of explants produced shoots. Explants were cultured on the regeneration medium for about 8-10 weeks before collection of final regeneration data.
# [2] = test system: E. grandis clone 6075 explants; assay: Adventitious shoot regeneration from explants on regeneration medium, clone 6075
# Experimental: as §1, §2, §3
# [3] = test system: E. urophylla X grandis S-519; assay: Regeneration screening matrix, clone S-519; conditions: meta-topolin at least 2.5 μM, clone S519
# Experimental: as §3
# (§4) Combinations of meta-mopolin, 4-CPPU, and TDZ that gave the best regeneration across multiple experiments were combined with two standard regeneration media that have worked with other clones in the past to become a regeneration screening matrix for new clonal material.
# [4] = test system: E. amplifolia clone EA5490; assay: Regeneration screening matrix, clone EA5490; conditions: meta-topolin at least 2.5 μM
# Experimental: as §3, §4
# [5] = lower concentrations of 4-CPPU (0.025, 0.05 μM)
structure (smiles),measurement,setting,value
"O=C(Nc1ccccc1)Nc1ccnc(Cl)c1 [4-CPPU, N-(2-Chloro-4-pyridyl)-N′-phenylurea]",adventitious shoot formation (in words),[1]; 4-CPPU at 0.1 μM,effective
same,adventitious shoot formation (in words),[1]; [5],not effective in induce adventitious shoot formation
same,adventitious shoot formation (in words),[2]; 4-CPPU at 0.1 μM,effective
same,adventitious shoot formation (in words),[2]; [5],not effective in induce adventitious shoot formation
"O=C(Nc1ccccc1)Nc1cnns1 [TDZ, 1-phenyl-3-(1,2,3-thiadiazol-5-yl)urea]",promotion of shoot regeneration (in words),[1]; TDZ alone at 0.1 μM,not effective in promotion of shoot regeneration
same,promotion of shoot regeneration (in words),[2]; TDZ alone at 0.1 μM,not effective in promotion of shoot regeneration
"Oc1cccc(CNc2ncnc3nc[nH]c23)c1 [meta-topolin, N^6-(meta-hydroxybenzyl)adenine]",adventitious shoot formation (in words),[1]; meta-topolin at least 2.5 μM,significant increase in adventitious shoot formation
same,adventitious shoot formation (in words),[2]; meta-topolin at least 2.5 μM,significant increase in adventitious shoot formation
same,adventitious shoot regeneration (in words),[3],significantly higher adventitious shoot regeneration
same,adventitious shoot regeneration (in words),[4],significantly higher adventitious shoot regeneration
